Earlier results, collected in patent US20050196503A1, “High-intensity sweetener-polyol compositions” (priority 2004, published 2005).
Residues, ends and D or L forms follow the SMILES beside them.

Conditions: for Approximate sweetness (sucrose = 1): relative to sucrose, weight basis; for sweetness strength or sweetening potency, times that of sucrose: in terms of weight ratio; for sweetness relative to sucrose: percent of the sweetness of sucrose

Molecule	Approximate sweetness (sucrose = 1)	sweetness strength or sweetening potency, times that of sucrose	sweetness relative to sucrose [%]
OC[C@@H](O)[C@@H](O)[C@H](O)[C@@H](O)CO [Sorbitol]	0.6		
COC(=O)[C@H](Cc1ccccc1)NC(=O)[C@@H](N)CC(=O)O [Aspartame] (H-Asp-Phe-OMe)	180	about 180 times	
COC(=O)[C@H](Cc1ccccc1)NC(=O)[C@H](CC(=O)O)NCCC(C)(C)C [Neotame]	8,000	~10,000 times	
OC[C@@H](O)[C@@H](O)CO [Erythritol]	0.7		
OC[C@@H](O)[C@@H](O)[C@H](O)[C@H](O)CO [Mannitol]	0.7		
OC[C@H]1O[C@H](O[C@]2(CCl)O[C@H](CCl)[C@@H](O)[C@@H]2O)[C@H](O)[C@@H](O)[C@H]1Cl [Sucralose]	600		
O=C1NS(=O)(=O)c2ccccc21 [Saccharin]	300		
CC1=CC(=O)[N-]S(=O)(=O)O1.[K+] [Acesulfame-K]	200	about 200 times	
OC[C@@H](O)[C@H](O)[C@@H](O)CO [Xylitol]	1.0		100
Isomalt [Isomalt (platinit)]	0.45-0.65		
OC[C@@H](O)[C@@H](O[C@H]1O[C@H](CO)[C@@H](O)[C@H](O)[C@H]1O)[C@H](O)[C@@H](O)CO [Malitol, maltitol]	0.9		90
OC[C@@H](O)[C@@H](O[C@@H]1O[C@H](CO)[C@H](O)[C@H](O)[C@H]1O)[C@H](O)[C@@H](O)CO [Lactitol]	0.4		
